Experimental data from patent US12544428B2, “Controlled-release CNP agonists with reduced side-effects” (ASCENDIS PHARMA GROWTH DISORDERS A/S, priority 2016, dated 2026).
Like-named read-outs stand apart in the source and are kept apart here.

Legend:
[1] = Pharmacokinetic profile of CNP-38 after subcutaneous single-dose administration to cynomolgus monkeys; type: in vivo
Experimental: This study was performed in order to test the pharmacokinetics of CNP-38 after subcutaneous (s.c.) administration in cynomolgus monkeys. […] Blood samples were collected at 5, 10, 15, 30, 45 min and 1, 2, 4, 8 hours upon dose.
Method: Plasma levels of CNP were analysed using a commercially available competitive radioimmuno-assay (RK-012-03, Phoenix Pharmaceuticals, CA). The assay was applied essentially as described by the manufacturer. The assay is based on competitive binding between 125I-labelled CNP (supplied in the kit) and unlabeled CNP (from study sample or calibrants) to an anti-CNP antibody. When the concentration of CNP in the sample increases, the amount of 125I-labelled CNP that is able to bind to the antibody decreases. By measuring the amount of 125I-labelled CNP bound as a function of the concentration of peptide, it is possible to construct a calibration curve from which the concentration of peptide in the sample can be determined.
A few changes to the supplied assay protocol were made. These changes included using in-house CNP calibrant and QC samples to secure consistency between assay runs. In order to shorten the duration of the assay, the initial incubation of samples with antibodies was performed at room temperature for 5 hours (instead of 16-24 hours at 4° C.). Due to matrix effects in monkey plasma, the minimal required dilution was set at 1:10, yielding an assay range of 150-1080 pg/mL CNP.

[2] = Evaluation of cardiovascular effects in the conscious telemetered mouse (subcutaneous administration); type: in vivo, Crl:CD1(ICR) mice; conditions: 800 μg CNP-38 (eq)/kg sc; for MAP: mean ± SD, n = 4
Source text: The purpose of this study was to evaluate the haemodynamic side effects of 11i at dose level equivalent to a CNP-38 dose level eliciting haemodynamic side effects (decrease in blood pressure) in the telemetered mouse.
Male Crl:CD1(ICR) mice (age range 8-13 weeks and body weight range 27.3-35.6 g at start of dosing) were surgically implanted with a TA11PA-C10 telemetry transmitter (Data Sciences International (DSI)) in the carotid artery. The body of the transmitter was placed subcutaneously in the lateral flank of the mouse. The mice were dosed subcutaneously in a latin square crossover design with at least 72 hours between dosing occasions. Mice were dosed with 1) vehicle (10 mM succinate, 46.0 g/L mannitol, pH 4.00), 2) CNP-38 (800 μg CNP-38/kg, 10 mM succinate, 46.0 g/L mannitol, pH 4.00) or 3) 11i (800 μg CNP-38 eq/kg, 10 mM succinate, 46.0 g/L mannitol, pH 4.00). At least four mice were included at each dose level. Blood pressure (systolic (SAP), diastolic (DAP) and mean (MAP) and heart rate (HR, derived from blood pressure), were recorded using a digital data capture system linked with a DSITM Ponemah data acquisition and analysis system. The capture system allowed recording of the cardiovascular parameters whilst the mice were in individual cages. On the day of each test session the animals were weighed and a predose recording was performed for at least 60 min prior to dosing. Each mouse was returned to the home cage and the cardiovascular parameters were recorded for approximately 48 hours postdose. Blood pressure and HR were reported at the following time points: −30, −20, −10, 5, 15 and 30 min postdose and 1, 2, 6, 12, 18, 24, 30, 36, 42 and 48 hours postdose. Each time point was presented as the average value of five minute's recording prior to the time point. The monitoring period was selected to cover exposure to the test items both prior to and after Tmax.

[3] = CNP injection, healthy volunteers; cited from earlier work
[4] = after iv administration; cited from earlier work
recombinant human NEP = recombinant human NEP (Homo sapiens, UniProt P08473); conditions: pH 7.4
Method: In order to determine the in vitro stability of various CNP variants including different peptide chain lengths and PEGylations using different PEGylation sites and PEG molecules in the presence of Neutral Endopeptidase (NEP), a NEP digest assay was established. This assay monitored the decrease of the non-digested CNP variant (normalized with the internal standard PFP) over time in reference to the t0-time point.
In detail, recombinant human NEP (2.5 μg/mL final concentration) and the standard pentafluorophenol (PFP; 40 μg/mL final concentration) were added to the CNP variant (100 μg CNP equivalents/mL) in digest buffer (50 mM Tris-HCl, pH 7.4, 10 mM NaCl). The solution was incubated at 37° C. and 500 rpm for up to 4 days. Samples were taken at different time intervals. The reaction was stopped by a combined reduction and heat denaturation adding TCEP (tris(2-carboxyethyl)phosphine; 25 mM final concentration) and incubating the mixture at 95° C., 500 rpm for 5 minutes. The resulting reaction products were assigned using HPLC-MS. The half life of each CNP variant was calculated via the ratio change in the HPLC-UV peak areas of CNP and PFP over time.

NPR-B receptor = biological target: T1, NPR-B receptor (Mus musculus, UniProt Q6VVW5); assay: Functional cGMP stimulation in NIH-3T3 cells with CNP variants; type: cell-based, murine; conditions: residual NPR-B activity vs non-PEGylated CNP-38, cGMP
T1 construct: These cells express endogenously the NPR-B receptor on the cell surface; endogenous in cells; host or cells: NIH-3T3 (murine embryo fibroblast)
T1 sequence (Q6VVW5 23-1047 limits assumed): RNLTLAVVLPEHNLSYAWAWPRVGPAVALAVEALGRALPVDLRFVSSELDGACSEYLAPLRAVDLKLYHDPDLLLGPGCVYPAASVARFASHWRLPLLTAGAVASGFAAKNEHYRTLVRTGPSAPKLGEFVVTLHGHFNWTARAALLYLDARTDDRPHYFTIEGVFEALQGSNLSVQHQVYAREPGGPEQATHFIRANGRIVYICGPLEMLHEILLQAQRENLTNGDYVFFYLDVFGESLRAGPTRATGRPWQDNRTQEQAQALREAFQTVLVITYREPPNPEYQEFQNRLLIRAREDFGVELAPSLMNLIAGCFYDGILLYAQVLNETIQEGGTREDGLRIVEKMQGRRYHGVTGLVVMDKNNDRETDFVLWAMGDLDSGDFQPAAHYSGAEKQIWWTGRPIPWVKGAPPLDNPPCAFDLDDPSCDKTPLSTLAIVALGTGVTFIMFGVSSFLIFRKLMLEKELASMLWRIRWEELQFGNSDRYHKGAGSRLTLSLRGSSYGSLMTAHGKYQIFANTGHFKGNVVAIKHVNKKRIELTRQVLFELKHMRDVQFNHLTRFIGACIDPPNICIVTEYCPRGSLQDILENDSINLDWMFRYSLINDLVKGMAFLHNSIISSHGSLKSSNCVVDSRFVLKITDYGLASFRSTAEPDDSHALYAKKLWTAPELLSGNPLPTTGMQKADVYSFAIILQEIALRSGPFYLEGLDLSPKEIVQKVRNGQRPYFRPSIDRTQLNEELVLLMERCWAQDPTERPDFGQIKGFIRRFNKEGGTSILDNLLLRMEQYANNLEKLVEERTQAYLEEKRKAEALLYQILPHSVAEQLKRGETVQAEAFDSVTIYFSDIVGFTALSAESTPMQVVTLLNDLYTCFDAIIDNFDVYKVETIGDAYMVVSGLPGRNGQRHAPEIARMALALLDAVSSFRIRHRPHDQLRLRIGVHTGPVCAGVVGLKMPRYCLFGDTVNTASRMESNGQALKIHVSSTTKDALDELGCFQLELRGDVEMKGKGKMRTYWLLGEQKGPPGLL
Experimental: As used herein “EC50” with regard to controlled-release CNP agonist and CNP agonist refers to the concentration of controlled-release CNP agonist and CNP agonist with which a half-maximum cGMP production of NPR-B is elicited. NPR-B activity in the form of its EC50 of the controlled-release CNP agonist, of the released CNP agonist and of CNP-22 is measured by cultivating NIH-3T3 (Murine Embryo Fibroblast cell line) cells which express NPR-B on their cell surface, incubating the cells with the controlled-release CNP agonist, the corresponding released CNP agonist or CNP-22, respectively, and determining the intracellular production of the second messenger cGMP with a standard cGMP assay. In particular the assay is performed as follows: • (1) murine NIH-3T3 cells expressing endogenous NPR-B are cultivated in DMEM F-12 medium with 5% FBS and 5 mM glutamine at 37° C. and 5% CO2; • (2) for each assay 50,000 cells are resuspended in Dulbecco's PBS with IBMX and incubated with either the controlled-release CNP agonist, the corresponding released CNP agonist or CNP-22; each in different concentrations; • (3) after incubating for 30 min at 37° C. and 5% CO2, the cells are lysed and cGMP levels are determined; and • (4) generating an EC50 value from the determined cGMP levels.
Functional activity of CNP variants were determined in a cell-based assay with NIH-3T3 cells (Murine Embryo Fibroblast cell line). These cells express endogenously the NPR-B receptor on the cell surface. Stimulation of the NPR-B receptor with CNP leads to intracellular production of the second messenger cGMP which is detected with a commercially available cGMP assay. NIH-3T3 cells were routinely cultured in DMEM F-12 medium with 5% FBS and 5 mM glutamine at 37° C. and 5% CO2. For each assay, 50,000 cells were resuspended in stimulation buffer (Dulbecco's PBS with IBMX) and incubated with the CNP variants in different concentrations. CNP (dilutions were made in PBS with 0.2% BSA). After incubation of 30 min at 37° C. and 5% CO2, the cells were lyzed and cGMP levels were determined with a commercially available cGMP TR-FRET assay (Cisbio, cGMP kit, Cat. No. 62GM2PEB). PEGylated CNP variants were always characterized in comparison with the non-PEGylated version in the same experiment batch. If possible, evaluation of the residual activity was done via the relative EC50-parameter of the resulting dose-response curve (restricted model with common slope).
11i was incubated under physiological conditions (1 mg CNP-38 eq/mL), as described in Example 20. After 7 d, released CNP-38 was isolated by RP-HPLC and analyzed for bioactivity as described in Example 21.

NPR-C = biological target: T2, NPR-C (Homo sapiens, UniProt P17342); assay: NPR-C affinity assay; type: binding; conditions: residual NPR-C affinity, NPR-C expressing Hek293 cells, competition with fluorescein-labelled CNP 27d
T2 construct: expressed in transfected cells; host or cells: Hek293, lentiviral transduction, CMV promoter, puromycin selection
T2 sequence (P17342 27-541): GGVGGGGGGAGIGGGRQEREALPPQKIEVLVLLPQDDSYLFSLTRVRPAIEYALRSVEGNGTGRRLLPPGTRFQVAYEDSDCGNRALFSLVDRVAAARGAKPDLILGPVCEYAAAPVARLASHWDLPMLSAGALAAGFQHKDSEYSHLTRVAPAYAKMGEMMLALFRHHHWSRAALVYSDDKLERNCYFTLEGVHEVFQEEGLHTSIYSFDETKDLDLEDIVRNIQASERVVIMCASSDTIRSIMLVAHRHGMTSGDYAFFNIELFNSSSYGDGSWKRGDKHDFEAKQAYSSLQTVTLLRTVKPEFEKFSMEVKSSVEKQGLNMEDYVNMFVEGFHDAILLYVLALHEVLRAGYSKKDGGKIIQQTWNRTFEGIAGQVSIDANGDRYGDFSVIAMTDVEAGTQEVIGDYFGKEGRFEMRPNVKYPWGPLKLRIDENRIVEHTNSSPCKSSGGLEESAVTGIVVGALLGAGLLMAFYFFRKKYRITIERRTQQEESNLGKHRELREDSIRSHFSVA

Chain of recombinant human NEP (P08473 whole entry): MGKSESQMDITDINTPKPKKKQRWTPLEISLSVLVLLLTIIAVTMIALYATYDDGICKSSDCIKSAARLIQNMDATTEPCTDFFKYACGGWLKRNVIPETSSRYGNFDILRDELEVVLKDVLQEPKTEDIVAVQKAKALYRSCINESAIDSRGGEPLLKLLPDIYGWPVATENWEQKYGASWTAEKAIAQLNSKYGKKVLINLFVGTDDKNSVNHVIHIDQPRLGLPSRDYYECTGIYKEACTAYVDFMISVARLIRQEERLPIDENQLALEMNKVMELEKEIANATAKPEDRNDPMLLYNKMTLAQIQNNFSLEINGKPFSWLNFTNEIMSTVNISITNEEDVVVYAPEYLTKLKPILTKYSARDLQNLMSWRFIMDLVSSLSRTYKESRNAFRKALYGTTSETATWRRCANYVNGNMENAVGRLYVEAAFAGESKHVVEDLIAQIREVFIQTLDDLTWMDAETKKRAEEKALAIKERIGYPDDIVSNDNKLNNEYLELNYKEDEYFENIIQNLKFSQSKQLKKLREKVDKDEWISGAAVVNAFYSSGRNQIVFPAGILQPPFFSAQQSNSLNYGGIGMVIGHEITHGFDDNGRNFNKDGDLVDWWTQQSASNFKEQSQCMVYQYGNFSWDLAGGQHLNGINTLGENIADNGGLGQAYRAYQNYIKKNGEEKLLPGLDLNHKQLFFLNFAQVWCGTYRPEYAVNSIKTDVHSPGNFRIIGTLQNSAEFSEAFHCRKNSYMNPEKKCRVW

Compound: CC[C@H](C)[C@@H]1NC(=O)[C@H](CCCNC(=N)N)NC(=O)[C@H](CC(=O)O)NC(=O)[C@H](CC(C)C)NC(=O)[C@H](CCCCN)NC(=O)[C@H](CC(C)C)NC(=O)CNC(=O)[C@H](Cc2ccccc2)NC(=O)[C@@H](NC(=O)CNC(=O)[C@H](CCCCN)NC(=O)[C@H](CO)NC(=O)[C@H](CC(C)C)NC(=O)CNC(=O)[C@H](CCCCN)NC(=O)[C@H](CCCCN)NC(=O)[C@H](CC(N)=O)NC(=O)[C@H](C)NC(=O)CNC(=O)[C@H](CCCCN)NC(=O)[C@H](Cc2ccc(O)cc2)NC(=O)[C@H](CCCCN)NC(=O)[C@H](CCCNC(=N)N)NC(=O)[C@H](C)NC(=O)[C@H](CC(N)=O)NC(=O)[C@@H]2CCCN2C(=O)[C@H](Cc2c[nH]cn2)NC(=O)[C@H](CCC(=O)O)NC(=O)[C@H](CCC(N)=O)NC(=O)[C@@H](N)CC(C)C)CSSC[C@@H](C(=O)O)NC(=O)CNC(=O)[C@H](CC(C)C)NC(=O)CNC(=O)[C@H](CO)NC(=O)[C@H](CCSC)NC(=O)[C@H](CO)NC(=O)CNC1=O [CNP-38, reference compound]
- Half-life (mean) ([1]; cynomolgus monkey, in vivo, sc, 40 ug/kg): 6.6 min
- half-life ([1]; male, cynomolgus monkey, in vivo, sc, 40 ug/kg): ~7 min
- tolerability ([1]; single s.c. 40 μg/kg): well tolerated
- HR [2]: not impacted
- MAP versus vehicle at the remaining ten time points ([2]; 1 to 48 hours postdose): no difference in MAP
- change in MAP compared to predose ([2]; 5, 15 and 30 min post dose, CNP-38: 3 of 4 animals): significant decrease in MAP
- MAP ([2]; 5 min post dose): 102.0 ± 7.5 mmHg
- MAP ([2]; 15 min post dose): 89.5 ± 29.4 mmHg
- MAP ([2]; 30 min post dose): 99.5 ± 25.2 mmHg
- MAP ([2]; predose): 106.8 ± 13.4 mmHg

Compound: CNP: natriuretic peptide CNP injected in healthy volunteers (Igaki et al.)
- heart rate [3]: significant increase in heart rate
- systolic and diastolic blood pressure [3]: transient but significant decrease in both systolic and diastolic blood pressure

Compound: CC[C@H](C)[C@@H]1NC(=O)[C@H](CCCNC(=N)N)NC(=O)[C@H](CC(=O)O)NC(=O)[C@H](CC(C)C)NC(=O)[C@H](CCCCN)NC(=O)[C@H](CC(C)C)NC(=O)CNC(=O)[C@H](Cc2ccccc2)NC(=O)[C@@H](NC(=O)CNC(=O)[C@H](CCCCN)NC(=O)[C@H](CO)NC(=O)[C@H](CC(C)C)NC(=O)CN)CSSC[C@@H](C(=O)O)NC(=O)CNC(=O)[C@H](CC(C)C)NC(=O)CNC(=O)[C@H](CO)NC(=O)[C@H](CCSC)NC(=O)[C@H](CO)NC(=O)CNC1=O [CNP-22]
- half-life [4]: 2 min

Compound: Permanent Lys16 CNP-34 PEG 5 kDa Conjugate [Compound 17e]
- half-life (recombinant human NEP): 54.2 h

Compound: Permanent Lys26 CNP-38 PEG 5 kDa Conjugate [Compound 19e]
- EC50 compound/EC50 CNP-38 (NPR-B receptor): >100
- half-life (recombinant human NEP): 62.8 h
- IC50 of PEGylated CNP-38/IC50 CNP-38 (NPR-C): 1.1

Compound: Permanent Lys22 CNP-34 PEG 5 kDa Conjugate [Compound 18e]
- half-life (recombinant human NEP): 38.9 h
